Measurements published in US8580825B2, “Oxadiazole inhibitors of leukotriene production” (Boehringer Ingelheim International GmbH, priority 2010, dated 2013).

Legend:
[1] = target: T1, recombinant human FLAP protein (Homo sapiens, UniProt P20292); experiment: FLAP binding assay (Scintillation Proximity Assay, displacement of [125I]L-691,831); settings: read-out: FLAP SPA IC50
T1 construct: made in house; host or cells: Sf9 insect cells (100,000xg membrane fraction used)
T1 sequence (P20292 1-161): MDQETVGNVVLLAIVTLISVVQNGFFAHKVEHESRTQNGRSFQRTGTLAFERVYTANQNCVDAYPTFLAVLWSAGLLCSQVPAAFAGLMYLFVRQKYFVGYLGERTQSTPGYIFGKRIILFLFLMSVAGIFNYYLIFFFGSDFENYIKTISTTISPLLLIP
Outline: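 Scintillation proximity displacement of [125I]L-691,831 (0.08 nM) from membranes of sf9 cells expressing recombinant human FLAP (5 μg/well) on WGA SPA beads, pH 7.5 Tris buffer. Plates shaken 2 h before counting. Non-specific binding defined with 10 μM unlabelled L-691,831.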

[2] = tested on: synthesis of LTB4 in human whole blood; experiment: human whole blood LTB4 production inhibition assay; format: cell-based; settings: calcimycin stimulated, read-out: hWB LTB4 IC50
Outline: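 Heparinized human whole blood was preincubated with compound for 15 min at 37° C, then stimulated with calcimycin (20 μM final, in PBS pH 7.4) for a further 30 min at 37° C. Plasma LTB4 was quantified by antibody-based homogeneous time-resolved fluorescence.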

| IC50 [1] [nM] | IC50 [2] [nM] | SMILES |
| --- | --- | --- |
| 13 | 68 | CC(C)[C@](C)(c1ccc(-c2cnc(N)nc2)nc1)c1noc(-c2cnn(CC(=O)N(C)C3CC3)c2)n1 [Example 144, 2-[4-(3-{(R)-1-[6-(2-Amino-pyrimidin-5-yl)-pyridin-3-yl]-1,2-dimethyl-propyl}-1,2,4-oxadiazol-5-yl)-pyrazol-1-yl]-N-cyclopropyl-N-methyl-acetamide] |
| 14 | 110 | CC(C)CNC(=O)Cn1cc(-c2nc([C@@](C)(c3ccc(-c4cnc(N)nc4)nc3)C(C)C)no2)cn1 [Example 145, 2-[4-(3-{(R)-1-[6-(2-Amino-pyrimidin-5-yl)-pyridin-3-yl]-1,2-dimethyl-propyl}-1,2,4-oxadiazol-5-yl)-pyrazol-1-yl]-N-isobutyl-acetamide] |
| 9.4 | 53 | CC(C)[C@](C)(c1ccc(-c2cnc(N)nc2)nc1)c1noc(-c2cnn(CC(=O)N(C)CC3CCCO3)c2)n1 (stereo partly drawn) [Example 146, 2-[4-(3-{(R)-1-[6-(2-Amino-pyrimidin-5-yl)-pyridin-3-yl]-1,2-dimethyl-propyl}-1,2,4-oxadiazol-5-yl)-pyrazol-1-yl]-N-methyl-N-(tetrahydro-furan-2-ylmethyl)-acetamide] |
| 8.6 | 170 | CC(C)[C@](C)(c1ccc(-c2cnc(N)nc2)nc1)c1noc(-c2cnn(CC(=O)NC3CC3)c2)n1 [Example 147, 2-[4-(3-{(R)-1-[6-(2-Amino-pyrimidin-5-yl)-pyridin-3-yl]-1,2-dimethyl-propyl}-1,2,4-oxadiazol-5-yl)-pyrazol-1-yl]-N-cyclopropyl-acetamide] |
| 22 | 290 | CC(C)[C@](C)(c1ccc(-c2cnc(N)nc2)nc1)c1noc(-c2cnn(CC(=O)NCC3CCCO3)c2)n1 (stereo partly drawn) [Example 148, 2-[4-(3-{(R)-1-[6-(2-Amino-pyrimidin-5-yl)-pyridin-3-yl]-1,2-dimethyl-propyl}-1,2,4-oxadiazol-5-yl)-pyrazol-1-yl]-N-(tetrahydro-furan-2-ylmethyl)-acetamide] |
| 15 | 140 | CCNC(=O)Cn1cc(-c2nc([C@@](C)(c3ccc(-c4cnc(N)nc4)nc3)C(C)C)no2)cn1 [Example 149, 2-[4-(3-{(R)-1-[6-(2-Amino-pyrimidin-5-yl)-pyridin-3-yl]-1,2-dimethyl-propyl}-1,2,4-oxadiazol-5-yl)-pyrazol-1-yl]-N-ethyl-acetamide] |
| 42 | 180 | COC1CCN(C(=O)Cn2cc(-c3nc([C@@](C)(c4ccc(-c5cnc(N)nc5)nc4)C(C)C)no3)cn2)C1 (stereo partly drawn) [Example 150, 2-[4-(3-{(R)-1-[6-(2-Amino-pyrimidin-5-yl)-pyridin-3-yl]-1,2-dimethyl-propyl}-1,2,4-oxadiazol-5-yl)-pyrazol-1-yl]-1-(3-methoxy-pyrrolidin-1-yl)-ethanone] |
| 32 | 190 | CC(C)[C@](C)(c1ccc(-c2cnc(N)nc2)nc1)c1noc(-c2cnn(CC(=O)N3CCOCC3)c2)n1 [Example 151, 2-[4-(3-{(R)-1-[6-(2-Amino-pyrimidin-5-yl)-pyridin-3-yl]-1,2-dimethyl-propyl}-1,2,4-oxadiazol-5-yl)-pyrazol-1-yl]-1-morpholin-4-yl-ethanone] |
| 24 | 190 | COCCNC(=O)Cn1cc(-c2nc([C@@](C)(c3ccc(-c4cnc(N)nc4)nc3)C(C)C)no2)cn1 [Example 152, 2-[4-(3-{(R)-1-[6-(2-Amino-pyrimidin-5-yl)-pyridin-3-yl]-1,2-dimethyl-propyl}-1,2,4-oxadiazol-5-yl)-pyrazol-1-yl]-N-(2-methoxy-ethyl)-acetamide] |
| 16 | 150 | COCCN(C)C(=O)Cn1cc(-c2nc([C@@](C)(c3ccc(-c4cnc(N)nc4)nc3)C(C)C)no2)cn1 [Example 153, 2-[4-(3-{(R)-1-[6-(2-Amino-pyrimidin-5-yl)-pyridin-3-yl]-1,2-dimethyl-propyl}-1,2,4-oxadiazol-5-yl)-pyrazol-1-yl]-N-(2-methoxy-ethyl)-N-methyl-acetamide] |
| 21 | 550 | CC(C)[C@](C)(c1ccc(-c2cnc(N)nc2)nc1)c1noc(-c2cnn(CC(=O)NC3CCOCC3)c2)n1 [Example 154, 2-[4-(3-{(R)-1-[6-(2-Amino-pyrimidin-5-yl)-pyridin-3-yl]-1,2-dimethyl-propyl}-1,2,4-oxadiazol-5-yl)-pyrazol-1-yl]-N-(tetrahydro-pyran-4-yl)-acetamide] |
| 19 | 110 | COC1CCN(C(=O)Cn2cc(-c3nc([C@@](C)(c4ccc(-c5cnc(N)nc5)nc4)C(C)C)no3)cn2)CC1 [Example 155, 2-[4-(3-{(R)-1-[6-(2-Amino-pyrimidin-5-yl)-pyridin-3-yl]-1,2-dimethyl-propyl}-1,2,4-oxadiazol-5-yl)-pyrazol-1-yl]-1-(4-methoxy-piperidin-1-yl)-ethanone] |
| 27 | 54 | CNc1cnc(-c2ccc([C@](C)(c3noc(-c4cnn(CC(C)(C)O)c4)n3)C3CC3)cn2)cn1 [Example 156, 1-[4-(3-{(R)-1-Cyclopropyl-1-[6-(5-methylamino-pyrazin-2-yl)-pyridin-3-yl]-ethyl}-[1,2,4]oxadiazol-5-yl)-pyrazol-1-yl]-2-methyl-propan-2-ol] |
| 420 | 969 | CNc1cnc(-c2ccc([C@@](C)(c3noc(-c4cnn(CC(C)(C)O)c4)n3)C3CC3)cn2)cn1 [Example 157, 1-[4-(3-{(S)-1-Cyclopropyl-1-[6-(5-methylamino-pyrazin-2-yl)-pyridin-3-yl]-ethyl}-[1,2,4]oxadiazol-5-yl)-pyrazol-1-yl]-2-methyl-propan-2-ol] |
| 230 | 502 | CC(C)(O)Cn1cc(-c2nc(C(C)(c3ccc(-c4cnc(N)c(F)c4)nc3)C3CC3)no2)cn1 (stereo not drawn) [Example 158, 1-(4-{3-[1-(6′-Amino-5′-fluoro-[2,3′]bipyridinyl-5-yl)-1-cyclopropyl-ethyl]-[1,2,4]oxadiazol-5-yl}-pyrazol-1-yl)-2-methyl-propan-2-ol] |
| 27 | 167 | CC(C)(O)Cn1cc(-c2nc(C(C)(c3ccc(-c4cnc5[nH]ccc5n4)nc3)C3CC3)no2)cn1 (stereo not drawn) [Example 159, 1-[4-(3-{1-Cyclopropyl-1-[6-(5H-pyrrolo[2,3-b]pyrazin-2-yl)-pyridin-3-yl]-ethyl}-[1,2,4]oxadiazol-5-yl)-pyrazol-1-yl]-2-methyl-propan-2-ol] |
| 15 | 23 | C[C@@](c1ccc(-c2cnc(N)cn2)nc1)(c1noc(-c2cnn(C3COC3)c2)n1)C1CC1 [Example 160, 5-(5-{(R)-1-Cyclopropyl-1[5-(1-oxetan-3-yl-1H-pyrazol-4-yl)-[1,2,4]oxadiazol-3-yl]-ethyl}-pyridin-2-yl)-pyrazin-2-ylamine] |
| 21 | 32 | C[C@@](c1ccc(-c2cnc(N)cn2)nc1)(c1noc(-c2cnn(CC#N)c2)n1)C1CC1 [Example 161, [4-(3-{(R)-1-[6-(5-Amino-pyrazin-2-yl)-pyridin-3-yl]-1-cyclopropyl-ethyl}-[1,2,4]oxadiazol-5-yl)-pyrazol-1-yl]-acetonitrile] |
| 290 | 348 | CC(C)(O)Cn1cc(-c2nc([C@@](C)(c3ccc(-c4cnc(N)nc4C#N)nc3)C3CC3)no2)cn1 [Example 163, 2-Amino-5-[5-((R)-1-cyclopropyl-1-{5-[1-(2-hydroxy-2-methyl-propyl)-1H-pyrazol-4-yl]-[1,2,4]oxadiazol-3-yl}-ethyl)-pyridin-2-yl]-pyrimidine-4-carbonitrile] |
| 40 | 97 | CC(C)(O)Cn1cc(-c2nc([C@@](C)(c3ccc(-c4cnc(N)c(C#N)n4)nc3)C3CC3)no2)cn1 [Example 164, 3-Amino-6-[5-((R)-1-cyclopropyl-1-{5-[1-(2-hydroxy-2-methyl-propyl)-1H-pyrazol-4-yl]-[1,2,4]oxadiazol-3-yl}-ethyl)-pyridin-2-yl]-pyrazine-2-carbonitrile] |
| 56 | 82 | CNc1ncc(-c2ccc([C@](C)(c3noc(-c4cnn(CC(C)(C)O)c4)n3)C3CC3)cn2)cn1 [Example 165, 1-[4-(3-{(R)-1-Cyclopropyl-1-[6-(2-methylamino-pyrimidin-5-yl)-pyridin-3-yl]-ethyl}-[1,2,4]oxadiazol-5-yl)-pyrazol-1-yl]-2-methyl-propan-2-ol] |
| 41 | 57 | Cc1nc(N)cnc1-c1ccc([C@](C)(c2noc(-c3cnn(CC(C)(C)O)c3)n2)C2CC2)cn1 [Example 166, 1-[4-(3-{(R)-1-[6-(5-Amino-3-methyl-pyrazin-2-yl)-pyridin-3-yl]-1-cyclopropyl-ethyl}-[1,2,4]oxadiazol-5-yl)-pyrazol-1-yl]-2-methyl-propan-2-ol] |
| 65 | 256 | CC(C)(O)Cn1cc(-c2nc([C@@](C)(c3ccc(-c4cnc(N)c(F)c4)nc3)C3CC3)no2)cn1 [Example 177, 1-(4-{3-[(R)-1-(6′-Amino-5′-fluoro-[2,3′]bipyridinyl-5-yl)-1-cyclopropyl-ethyl]-[1,2,4]oxadiazol-5-yl}-pyrazol-1-yl)-2-methyl-propan-2-ol] |
| 2000 | 2350 | CC(C)(O)Cn1cc(-c2nc([C@](C)(c3ccc(-c4cnc(N)c(F)c4)nc3)C3CC3)no2)cn1 [Example 178, 1-(4-{3-[(S)-1-(6′-Amino-5′-fluoro-[2,3′]bipyridinyl-5-yl)-1-cyclopropyl-ethyl]-[1,2,4]oxadiazol-5-yl}-pyrazol-1-yl)-2-methyl-propan-2-ol] |
